Activity calls are given as the source filed them. No cut-off for these calls is given here.
Key:
[1] = target: Xanthine dehydrogenase/oxidase (Homo sapiens, UniProt P47989); assay: Inhibition of xanthine oxidase (unknown origin) using xanthine as substrate preincubated for 15 mins followed by substrate addition measured after 30 mins by spectrophotometric analysis
[2] = Inhibition of alpha glucosidase (unknown origin) using para-nitrophenyl-alpha-D-glucopyranoside as substrate preincubated for 15 mins followed by substrate addition measured after 10 mins by spectrophotometric analysis; design: species or system Homo sapiens
Mus musculus [3] = assay: Hypoglycemic activity in ICR mouse assessed as decrease in elevated postprandial blood glucose level at 20 mg/kg, po administered 30 mins prior to sucrose challenge measured after 30 mins by OSTT; format: functional, organism-based
Mus musculus [4] = assay: Hypoglycemic activity in ICR mouse assessed as decrease in elevated postprandial blood glucose level at 20 mg/kg, po administered 30 mins prior to glucose challenge measured after 30 mins by OGTT; format: functional, organism-based
Mus musculus [5] = assay: Hypouricemic activity in ICR mouse assessed as decrease in potassium oxonate-induced serum uric acid level at 10 mg/kg, ip after 1 hr by Uricase colorimetric method; format: functional, organism-based

Sequence of Xanthine dehydrogenase/oxidase (P47989 whole entry): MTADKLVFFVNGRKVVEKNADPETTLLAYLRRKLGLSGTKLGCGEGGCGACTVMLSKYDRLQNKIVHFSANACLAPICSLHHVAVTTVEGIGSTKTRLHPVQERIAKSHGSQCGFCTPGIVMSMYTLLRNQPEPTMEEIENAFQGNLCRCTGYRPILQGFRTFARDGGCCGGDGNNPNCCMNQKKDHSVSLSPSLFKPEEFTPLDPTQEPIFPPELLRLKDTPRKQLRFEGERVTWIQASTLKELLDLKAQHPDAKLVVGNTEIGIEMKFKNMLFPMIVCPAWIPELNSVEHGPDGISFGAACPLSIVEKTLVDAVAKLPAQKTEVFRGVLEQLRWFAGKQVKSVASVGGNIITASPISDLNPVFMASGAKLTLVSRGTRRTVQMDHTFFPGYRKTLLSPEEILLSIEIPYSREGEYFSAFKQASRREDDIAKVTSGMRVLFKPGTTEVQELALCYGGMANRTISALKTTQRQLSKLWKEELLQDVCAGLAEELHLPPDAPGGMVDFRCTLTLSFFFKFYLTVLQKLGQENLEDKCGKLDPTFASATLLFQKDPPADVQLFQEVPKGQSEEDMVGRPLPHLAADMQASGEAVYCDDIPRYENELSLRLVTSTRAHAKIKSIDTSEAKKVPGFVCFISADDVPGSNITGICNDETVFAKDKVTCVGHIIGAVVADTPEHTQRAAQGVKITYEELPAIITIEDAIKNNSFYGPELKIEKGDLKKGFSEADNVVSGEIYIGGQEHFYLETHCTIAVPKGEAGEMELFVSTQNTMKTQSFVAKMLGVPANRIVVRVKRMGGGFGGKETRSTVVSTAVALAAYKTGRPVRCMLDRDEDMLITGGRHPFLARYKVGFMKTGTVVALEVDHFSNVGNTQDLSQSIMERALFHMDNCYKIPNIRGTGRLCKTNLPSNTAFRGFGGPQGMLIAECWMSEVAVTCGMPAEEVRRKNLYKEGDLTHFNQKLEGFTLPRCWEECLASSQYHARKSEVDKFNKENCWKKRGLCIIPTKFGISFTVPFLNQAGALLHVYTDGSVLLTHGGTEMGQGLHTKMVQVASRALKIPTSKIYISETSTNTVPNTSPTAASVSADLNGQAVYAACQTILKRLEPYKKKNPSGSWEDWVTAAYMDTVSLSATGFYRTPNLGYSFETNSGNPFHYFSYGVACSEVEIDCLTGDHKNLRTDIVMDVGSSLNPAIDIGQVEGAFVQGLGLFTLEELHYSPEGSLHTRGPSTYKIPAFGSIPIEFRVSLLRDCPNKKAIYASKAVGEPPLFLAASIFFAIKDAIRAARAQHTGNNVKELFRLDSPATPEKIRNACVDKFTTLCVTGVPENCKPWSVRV

SMILES | IC50 [1] | IC50 [2] | Activity (Mus musculus [3]) | Activity (Mus musculus [4]) | Activity (Mus musculus [5])
O=C(O)COc1ccc(-c2cc(=O)c3c(O)cc(O)cc3o2)cc1 |  | > 500 µM |  |  | 
O=C(O)CCCCCCCOc1ccc(-c2cc(=O)c3c(O)cc(O)cc3o2)cc1 | 0.25 µM | > 500 µM |  |  | 
O=C(O)CCCCCCOc1ccc(-c2cc(=O)c3c(O)cc(O)cc3o2)cc1 | 0.098 µM | > 500 µM |  |  | Active
O=C(O)CCCCCOc1ccc(-c2cc(=O)c3c(O)cc(O)cc3o2)cc1 | 0.32 µM | > 500 µM |  |  | 
Oc1ncnc2[nH]ncc12 |  |  |  |  | Active
O=c1cc(-c2ccc(O)cc2)oc2cc(O)cc(O)c12 [APIGENIN] | 3.2 µM | 24.3 µM | inactive |  | inactive
O=C(O)CCCOc1ccc(-c2cc(=O)c3c(O)cc(O)cc3o2)cc1 | 0.6 µM | > 500 µM |  |  | 
O=C(O)CCCCOc1ccc(-c2cc(=O)c3c(O)cc(O)cc3o2)cc1 | 0.22 µM | > 500 µM |  |  | 
O=C(O)CCCCCCCOc1cc(O)cc2oc(-c3ccc(O)cc3)cc(=O)c12 |  | > 500 µM |  |  | 
C[C@H]1O[C@H](O[C@H]2[C@H](O)[C@@H](O)[C@@H](O[C@H]3[C@H](O)[C@@H](O)C(O)O[C@@H]3CO)O[C@@H]2CO)[C@H](O)[C@@H](O)[C@@H]1N[C@H]1C=C(CO)[C@@H](O)[C@H](O)[C@H]1O (some centres undefined) [ACARBOSE] |  | 222 µM | Active |  | 

The next lines start with results.

IC50 [1] | IC50 [2] | SMILES | Activity (Mus musculus [3]) | Activity (Mus musculus [4]) | Activity (Mus musculus [5])
> 100 µM | 18.3 µM | O=C(O)CCCCCCCOc1cc(O)c2c(=O)cc(-c3ccc(O)cc3)oc2c1 | inactive | inactive | 
 | 113 µM | O=C(O)COc1cc(O)cc2oc(-c3ccc(O)cc3)cc(=O)c12 |  |  | 
 | 51.4 µM | O=C(O)CCCCCCOc1cc(O)cc2oc(-c3ccc(O)cc3)cc(=O)c12 | Active | inactive | 
> 100 µM | 90.4 µM | O=C(O)CCCCCCOc1cc(O)c2c(=O)cc(-c3ccc(O)cc3)oc2c1 |  |  | 
> 100 µM | 101 µM | O=C(O)CCCCCOc1cc(O)c2c(=O)cc(-c3ccc(O)cc3)oc2c1 |  |  | 
 | 35.9 µM | O=C(O)CCCOc1cc(O)cc2oc(-c3ccc(O)cc3)cc(=O)c12 |  |  | 
 | 61.2 µM | O=C(O)COc1cc(O)c2c(=O)cc(-c3ccc(O)cc3)oc2c1 |  |  | 
 | 39 µM | O=C(O)CCCCOc1cc(O)cc2oc(-c3ccc(O)cc3)cc(=O)c12 | inactive | inactive | 
> 100 µM | 33.7 µM | O=C(O)CCCCOc1cc(O)c2c(=O)cc(-c3ccc(O)cc3)oc2c1 |  |  | 
 | 26.2 µM | O=C(O)CCCCCOc1cc(O)cc2oc(-c3ccc(O)cc3)cc(=O)c12 | Active | inactive | 
> 100 µM | 44.5 µM | O=C(O)CCCOc1cc(O)c2c(=O)cc(-c3ccc(O)cc3)oc2c1 |  |  | 
